Data set [1] is described as follows: Pharmacokinetic study in dogs after oral dosing of tablets with SNAC. It is filed as in vivo, Beagle dogs. The following applies: dog, in vivo, po. As to the method: The purpose of this example is to determine the half-life and plasma exposure in vivo of the compounds of the present invention after p.o. administration to beagle dogs, i.e. the terminal half-life and concentration of test substance that reaches circulation with time. This is done in a pharmacokinetic (PK) study, where these parameters of the compound in question are determined. By terminal half-life is generally meant the period of time it takes to halve a certain plasma concentration, measured after the initial distribution phase.
The amount of SNAC in the tablet composition was 100-300 mg, the amount of magnesium stearate in the tablet composition was 7.7 mg, and the target amount of each test substance in the tablet composition was 3-4 mg.
Male beagle dogs, 1-7 years of age and weighing 9-17 kg during the study period, were included in the study. The dogs were dosed in a fasting state. The dogs were group housed in pens (12 hours light: 12 hours dark), and fed individually and restrictedly once daily with Royal Canin Medium Adult dog food (Royal Canin Products, China Branch, or Brogaarden A/S, Denmark). The dogs were used for repeated PK studies with a suitable wash-out period between successive dosing. An appropriate acclimatization period was given prior to initiation of the first PK study. All handling, dosing, and blood sampling of the animals were performed by trained and skilled staff. Before the studies, the dogs were fasted overnight and from 0 to 4 hours after dosing. The dogs were restricted to water 1 hour before dosing until 4 hours after dosing, but otherwise had ad libitum access to water during the whole period.
The compositions were administered by a single oral dosing to the dogs in groups of 6-8 dogs. […] The mouth was then closed, and 10 mL of tap water was given by syringe or gavage to facilitate swallowing of the tablet.
One blood sample was drawn before dosing, and additional samples were drawn at predefined time points after dosing for up to 240 hours, such as up to 10 hours, to adequately cover the full plasma concentration-time absorption profile of the test substance. For each blood sample time point, approximately 0.8 mL of whole blood was collected in a 1.5 mL EDTA-coated tube, which was gently turned to mix the sample with EDTA. Blood samples were collected in EDTA buffer (8 mM) and then centrifuged at 4° C. 2000 g for 10 minutes. Plasma was pipetted into Micronic tubes on dry ice, and kept at −20° C. or lower until analysis. Blood samples were taken as appropriate, for example from a venflon in the cephalic vein in the front leg for the first 2 hours and then with syringe from the jugular vein for the rest of the time points. The first few drops were allowed to drain from the venflon to avoid heparin saline from the venflon in the sample.
All blood samples were collected into test tubes containing EDTA for stabilisation and kept on ice until centrifugation. Plasma was separated from whole blood by centrifugation and the plasma was stored at −20° C. or lower until analysis.
The plasma was analysed for test substance using LC-MS (Liquid Chromatography-Mass Spectrometry) as known to the person skilled in the art. […] RP-HPLC separation was achieved using a linear gradient of 1:1 acetonitrile/methanol in 1% aqueous formic acid using either: a Phenomenex Onyx Monolithic C18 column (50×2.0 mm) and a flow rate of 0.8 mL/min at 30° C.; or an Agilent Poroshell 120 SB-C18 column (50×2.1 mm, 2.7 μm) at a flow rate of 0.4 mL/min at 60° C. The mass spectrometer was operated in either positive ionization SIM mode or positive ionization PRM mode.
For each individual animal, a plasma concentration-time profile was analysed by a non-compartmental model in Pharsight Phoenix WinNonLin ver.

Data set [2] deals with human GLP-1 receptor (Homo sapiens, UniProt P43220). Description: In vitro functional potency, CRE luciferase reporter, whole BHK cells (hGLP-1R). Further details: expressed in transfected cells; host or cells: BHK (parent line BHKTS13), clone BHK CRE luc2P hGLP-1R. It is filed as cell-based. The following applies: BHK CRE luc2P hGLP-1R cells. Summed up:
(§1)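 Potencies are replicate means (n≥2) from non-linear log(agonist) vs response fits of CRE-driven luminescence. Cells were overnight-plated BHK CRE luc2P lines transfected with human GIPR or GLP-1R, 5000/well.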

Data set [3] has as its target T1, human GIP receptor (Homo sapiens, UniProt P48546).
T1 construct: expressed in transfected cells; host or cells: BHK (parent line BHKTS13), clone BHK CRE luc2P hGIPR
T1 sequence (P48546 22-466): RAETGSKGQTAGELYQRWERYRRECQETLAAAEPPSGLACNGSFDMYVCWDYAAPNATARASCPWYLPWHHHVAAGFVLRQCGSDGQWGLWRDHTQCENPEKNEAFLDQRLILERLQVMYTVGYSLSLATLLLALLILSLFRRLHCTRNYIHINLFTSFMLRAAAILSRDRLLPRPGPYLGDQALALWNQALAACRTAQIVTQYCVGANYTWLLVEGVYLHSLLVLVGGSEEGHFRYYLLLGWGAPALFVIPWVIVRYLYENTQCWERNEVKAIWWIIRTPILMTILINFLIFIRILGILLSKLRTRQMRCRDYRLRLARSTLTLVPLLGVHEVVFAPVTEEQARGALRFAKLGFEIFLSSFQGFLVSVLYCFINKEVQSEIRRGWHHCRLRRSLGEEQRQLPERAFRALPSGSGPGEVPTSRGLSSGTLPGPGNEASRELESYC
Description: In vitro functional potency, CRE luciferase reporter, whole BHK cells (hGIPR). Type of data set: cell-based. To be noted: BHK CRE luc2P hGIPR cells. Summed up:
as §1

Where [4] appears, read: 0% HSA, read-out: hGLP-1R, CRE Luc 0% HSA EC50.
Setting [5] is: hGLP-1R, CRE Luc 1% HSA EC50, 1% HSA.
Setting [6] is: 0% HSA, read-out: hGIPR, CRE Luc 0% HSA EC50.
[7] abbreviates: hGIPR, CRE Luc 1% HSA EC50, 1% HSA.

SMILES strings stand for the structures. pEC50: −log10 of the molar value. Where two headings read alike, the source gives them in different places. Starred links: 1 amine or outer side, 2 acyl side, 3 side chain; linkers in the order of their positions; H or OH if unused. Non-standard residues stand in square brackets, D forms with d. Residues, ends and D or L forms follow the SMILES beside them. Groups on a side chain read outwards from the residue. *: point of attachment. C18 diacid = O=C(O)CCCCCCCCCCCCCCCCC(=O)*; γGlu = O=C(O)[C@H](CCC(=O)[*:2])N[*:1]; εLys = N[C@@H](CCCCN[*:1])C(=O)[*:2]; AEEA = NCCOCCOCC(=O)O; Aib = CC(C)(N)C(=O)O

Sequence of human GLP-1 receptor (P43220 24-463): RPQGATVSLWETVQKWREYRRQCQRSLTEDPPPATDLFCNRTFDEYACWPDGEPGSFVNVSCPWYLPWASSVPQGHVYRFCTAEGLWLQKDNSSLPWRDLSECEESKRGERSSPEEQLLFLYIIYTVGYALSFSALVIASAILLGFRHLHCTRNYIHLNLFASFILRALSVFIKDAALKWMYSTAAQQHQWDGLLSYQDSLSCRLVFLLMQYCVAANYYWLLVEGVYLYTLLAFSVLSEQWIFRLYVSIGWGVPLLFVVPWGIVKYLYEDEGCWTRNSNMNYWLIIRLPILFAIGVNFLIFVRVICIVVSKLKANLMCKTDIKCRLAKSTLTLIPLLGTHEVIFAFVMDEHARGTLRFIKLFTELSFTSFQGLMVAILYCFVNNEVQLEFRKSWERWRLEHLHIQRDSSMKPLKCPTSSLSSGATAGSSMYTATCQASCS

In data set [1], `CC[C@H](C)[C@H](NC(=O)[C@H](Cc1ccccc1)NC(=O)[C@H](CCC(=O)O)NC(=O)[C@H](CCCNC(=N)N)NC(=O)[C@H](C)NC(=O)[C@H](C)NC(=O)[C@H](CCC(N)=O)NC(=O)[C@H](CCCCNC(=O)COCCOCCNC(=O)COCCOCCNC(=O)CC[C@H](NC(=O)CCCCCCCCCCCCCCCCC(=O)O)C(=O)O)NC(=O)[C@H](CCC(=O)O)NC(=O)[C@H](CC(C)C)NC(=O)[C@H](Cc1ccc(O)cc1)NC(=O)[C@@H](NC(=O)[C@H](CO)NC(=O)[C@H](Cc1ccc(O)cc1)NC(=O)[C@H](CC(=O)O)NC(=O)[C@H](CO)NC(=O)[C@@H](NC(=O)[C@H](Cc1ccccc1)NC(=O)[C@@H](NC(=O)CNC(=O)[C@H](CCC(=O)O)NC(=O)C(C)(C)NC(=O)[C@@H](N)Cc1ccc(O)cc1)[C@@H](C)O)[C@@H](C)O)[C@@H](C)CC)C(=O)N[C@@H](CCC(=O)O)C(=O)N[C@@H](Cc1c[nH]c2ccccc12)C(=O)N[C@@H](CC(C)C)C(=O)N[C@@H](CC(C)C)C(=O)N[C@@H](C)C(=O)NCC(=O)NCC(=O)N1CCC[C@H]1C(=O)N[C@@H](CO)C(=O)N[C@@H](CO)C(=O)NCC(=O)N[C@@H](C)C(=O)N1CCC[C@H]1C(=O)N1CCC[C@H]1C(=O)N1CCC[C@H]1C(=O)N[C@@H](CO)C(=O)O` [Compound 10] (H-Y[Aib]EGTFTSDYSIYLEK([AEEA-AEEA-γGlu-C18 diacid])QAAREFIEWLLAGGPSSGAPPPS-OH) came in with an AUC/Dose of 8.4 kg·h/L and a Cmax/Dose of 0.20 kg/L.

Regarding `CC[C@H](C)[C@H](NC(=O)[C@H](Cc1ccccc1)NC(=O)[C@H](CCC(=O)O)NC(=O)[C@H](CCCNC(=N)N)NC(=O)[C@H](C)NC(=O)[C@H](C)NC(=O)[C@H](CCC(N)=O)NC(=O)[C@H](CCCCNC(=O)[C@@H](N)CCCCNC(=O)[C@@H](N)CCCCNC(=O)CC[C@H](NC(=O)CCCCCCCCCCCCCCCCC(=O)O)C(=O)O)NC(=O)[C@H](CCC(=O)O)NC(=O)[C@H](CC(C)C)NC(=O)[C@H](Cc1ccc(O)cc1)NC(=O)[C@@H](NC(=O)[C@H](CO)NC(=O)[C@H](Cc1ccc(O)cc1)NC(=O)[C@H](CC(=O)O)NC(=O)[C@H](CO)NC(=O)[C@@H](NC(=O)[C@H](Cc1ccccc1)NC(=O)[C@@H](NC(=O)CNC(=O)[C@H](CCC(=O)O)NC(=O)C(C)(C)NC(=O)[C@@H](N)Cc1ccc(O)cc1)[C@@H](C)O)[C@@H](C)O)[C@@H](C)CC)C(=O)N[C@@H](CC(N)=O)C(=O)N[C@@H](Cc1c[nH]c2ccccc12)C(=O)N[C@@H](CC(C)C)C(=O)N[C@@H](CC(C)C)C(=O)N[C@@H](C)C(=O)NCC(=O)NCC(=O)N1CCC[C@H]1C(=O)N[C@@H](CO)C(=O)N[C@@H](CO)C(=O)NCC(=O)N[C@@H](C)C(=O)N1CCC[C@H]1C(=O)N1CCC[C@H]1C(=O)N1CCC[C@H]1C(=O)N[C@@H](CO)C(=O)O` [Compound 11] (H-Y[Aib]EGTFTSDYSIYLEK([εLys-εLys-γGlu-C18 diacid])QAAREFINWLLAGGPSSGAPPPS-OH), in data set [1], the AUC/Dose was found to be 7.1 kg·h/L and the Cmax/Dose is 0.19 kg/L.

For `CC[C@H](C)[C@H](NC(=O)[C@H](Cc1ccccc1)NC(=O)[C@H](CCC(=O)O)NC(=O)[C@H](CCCNC(=N)N)NC(=O)[C@H](C)NC(=O)[C@H](C)NC(=O)[C@H](CCCCNC(=O)[C@@H](N)CCCCNC(=O)[C@@H](N)CCCCNC(=O)CC[C@H](NC(=O)CCCCCCCCCCCCCCCCC(=O)O)C(=O)O)NC(=O)[C@H](CCC(=O)O)NC(=O)[C@H](CCC(=O)O)NC(=O)[C@H](CC(C)C)NC(=O)[C@H](Cc1ccc(O)cc1)NC(=O)[C@@H](NC(=O)[C@H](CO)NC(=O)[C@H](Cc1ccc(O)cc1)NC(=O)[C@H](CC(=O)O)NC(=O)[C@H](CO)NC(=O)[C@@H](NC(=O)[C@H](Cc1ccccc1)NC(=O)[C@@H](NC(=O)CNC(=O)[C@H](CCC(=O)O)NC(=O)C(C)(C)NC(=O)[C@@H](N)Cc1ccc(O)cc1)[C@@H](C)O)[C@@H](C)O)[C@@H](C)CC)C(=O)N[C@@H](CC(N)=O)C(=O)N[C@@H](Cc1c[nH]c2ccccc12)C(=O)N[C@@H](CC(C)C)C(=O)N[C@@H](CC(C)C)C(=O)N[C@@H](C)C(=O)NCC(=O)NCC(=O)N1CCC[C@H]1C(=O)N[C@@H](CO)C(=O)N[C@@H](CO)C(=O)NCC(=O)N[C@@H](C)C(=O)N1CCC[C@H]1C(=O)N1CCC[C@H]1C(=O)N1CCC[C@H]1C(=O)N[C@@H](CO)C(=O)O` [Compound 38] (H-Y[Aib]EGTFTSDYSIYLEEK([εLys-εLys-γGlu-C18 diacid])AAREFINWLLAGGPSSGAPPPS-OH), the negative logarithm of the EC50 (pEC50) was 11.51 in data set [2] (setting [4]), 9.59 in data set [2] (setting [5]), 10.91 in data set [3] (setting [6]) and 9.09 in data set [3] (setting [7]).

As for `CC[C@H](C)[C@H](NC(=O)[C@H](Cc1ccccc1)NC(=O)[C@H](CCC(=O)O)NC(=O)[C@H](CCCNC(=N)N)NC(=O)[C@H](C)NC(=O)[C@H](C)NC(=O)[C@H](CCC(N)=O)NC(=O)[C@H](CCCCNC(=O)COCCOCCNC(=O)COCCOCCNC(=O)CC[C@H](NC(=O)CCCCCCCCCCCCCCCCC(=O)O)C(=O)O)NC(=O)[C@H](CCC(=O)O)NC(=O)[C@H](CC(C)C)NC(=O)[C@H](CC(C)C)NC(=O)[C@@H](NC(=O)[C@H](CO)NC(=O)[C@H](Cc1ccc(O)cc1)NC(=O)[C@H](CC(=O)O)NC(=O)[C@H](CO)NC(=O)[C@@H](NC(=O)[C@H](Cc1ccccc1)NC(=O)[C@@H](NC(=O)CNC(=O)[C@H](CCC(=O)O)NC(=O)C(C)(C)NC(=O)[C@@H](N)Cc1ccc(O)cc1)[C@@H](C)O)[C@@H](C)O)[C@@H](C)CC)C(=O)N[C@@H](CC(N)=O)C(=O)N[C@@H](Cc1c[nH]c2ccccc12)C(=O)N[C@@H](CC(C)C)C(=O)N[C@@H](CC(C)C)C(=O)N[C@@H](C)C(=O)NCC(=O)NCC(=O)N1CCC[C@H]1C(=O)N[C@@H](CO)C(=O)N[C@@H](CO)C(=O)NCC(=O)N[C@@H](C)C(=O)N1CCC[C@H]1C(=O)N1CCC[C@H]1C(=O)N1CCC[C@H]1C(=O)N[C@@H](CO)C(=O)O` [Compound 35] (H-Y[Aib]EGTFTSDYSILLEK([AEEA-AEEA-γGlu-C18 diacid])QAAREFINWLLAGGPSSGAPPPS-OH), the pEC50 is 11.52 in data set [2] (setting [4]), 9.38 in data set [2] (setting [5]), 11.28 in data set [3] (setting [6]) and 9.52 in data set [3] (setting [7]).

As usually defined, the pEC50 is the EC50 on a negative log10 scale, so that one unit is a factor of ten.
